Data reported in patent publication US9730979B2, “Methods for decreasing set in inhibiting protein phosphatase 2A (PP2A) and/or increasing the activity of cyclin-dependent kinase 5 (CDK5) by an APOE peptide” (COGNOSCI, INC., priority 2006, dated 2017).

How the values were obtained:
[1] = molecular target: T1, SET bound to P35 (Mus musculus, UniProt Q9EQU5); assay: Co-precipitation of SET with immunoprecipitated p35 from mouse brain lysate; type: binding; settings: 50 μM peptide, SET normalized to P35
T1 construct: from tissue; host or cells: mouse brain lysate
T1 sequence (Q9EQU5 2-289 limits assumed): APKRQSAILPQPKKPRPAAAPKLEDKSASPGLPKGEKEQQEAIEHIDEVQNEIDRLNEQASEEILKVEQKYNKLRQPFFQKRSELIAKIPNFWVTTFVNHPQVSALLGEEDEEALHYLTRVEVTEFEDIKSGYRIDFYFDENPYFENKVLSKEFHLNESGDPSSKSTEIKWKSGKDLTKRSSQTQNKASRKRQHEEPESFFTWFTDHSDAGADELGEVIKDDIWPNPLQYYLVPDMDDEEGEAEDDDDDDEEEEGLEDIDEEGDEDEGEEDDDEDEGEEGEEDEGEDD
Protocol: FIG. 12. Mouse brain lysate was incubated with 50 μM of each of the peptides indicated. P35 was subsequently immunoprecipitated from 1 mg of the peptide-treated lysate. Western blots were performed to measure co-precipitation of SET protein (left panel). […] Signals from SET were normalized to signals for P35 protein. Results with COG 133 are not shown and were inconclusive possibly due to unequal protein loading.
(§1) Cdk5 requires the activator protein p35 for kinase activity. Although cdk5 is ubiquitously expressed, p35 expression is restricted to neurons of the central nervous system, thus limiting cdk5 associated kinase activity to these neurons. Cleavage of p35 to p25 disregulates cdk5 kinase activity causing the kinase to become constitutively active. Constitutive kinase activity of cdk5/p25 has been implicated in the aberrant hyperphosphorylation of tau protein and subsequent neurodegeneration found in Alzheimer's disease and other tauopathies. […] Therefore, it may be possible to reduce cdk5 kinase activity by interfering with the interaction between SET and the cdk5/p35 complex. To test this possibility, the effects of COG peptides on the binding of SET to p35 were examined. Mouse brain lysates (FIG. 12) or human brain lysates (FIG. 13) were incubated with 50 μM of COG 056 (reverse sequence of COG133), COG 112, COG133, or COG 1410. […]

[2] = tested on: tau; assay: Okadaic acid induced phospho-tau (AT-8) in mouse cortex; type: in vivo, C57B1/6 mice
Protocol: C57B1/6 mice were injected intravenously with increasing concentrations of okadaic acid (OA) (calculated by administration of a sufficient quantity of OA to produce the indicated μM concentration in a blood volume of 2 mL). One hour after OA was administered, mice were euthanized by decapitation and the brain removed. The cortex was isolated, flash frozen with liquid nitrogen, ground to a fine powder and an extract made by homogenization of the powder in an extraction buffer containing protease and phosphatase inhibitors. Protein extracts were separated by SDS-PAGE, transferred to nitrocellulose membranes, and probed for phospho-tau using the AT-8 antibody that recognizes phosphorylation of Ser202 and Thr205 of tau. Phospho-tau signals were normalized to signals from GAPDH protein. […] To determine the effect of COG peptides on the phosphorylation status of the tau protein, 5 mg/kg of COG 1410 was administered to the mice by subcutaneous injection 15 minutes prior to OA administration. FIG. 11B depicts the results of this series of experiments.

[3] = relative to COG 133; cited from earlier work
[4] = tested on: SET
Chain of SET (Q9EQU5 37-289 limits assumed): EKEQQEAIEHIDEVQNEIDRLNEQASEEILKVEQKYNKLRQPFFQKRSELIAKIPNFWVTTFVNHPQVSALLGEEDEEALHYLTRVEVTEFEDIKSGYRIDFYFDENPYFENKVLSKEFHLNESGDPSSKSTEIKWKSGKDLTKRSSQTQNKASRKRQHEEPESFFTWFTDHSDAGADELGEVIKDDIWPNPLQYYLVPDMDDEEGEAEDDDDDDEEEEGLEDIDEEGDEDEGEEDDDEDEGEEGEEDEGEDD
Protocol: COG 133-biotin or a biotin control was added to total protein from BV2 microglial cells. Proteins binding to Cog-biotin or biotin were collected by immunoprecipitation with streptavidin beads. Beads were extensively washed to remove non-specifically bound proteins. Proteins specifically bound to the streptavidin were eluted and denatured with laemmli sample buffer and run on an SDS/PAGE gel. After electrophoresis, the gel was stained by coomassie/silver stain to visualize protein bands.
Silver stained bands containing the COG 133-binding protein were excised from the gel, and protein was extracted from the gel slices, digested with a protease like trypsin, and the proteolytic fragments analyzed by mass spectrometry. The sequence of selected proteolytic fragments was accomplished by the MS/MS method. The sequences of the proteolytic fragments and their molecular weights were compared against amino acid sequences and molecular weights of known sequences in the NCBI GenBank by methods known in the art.
BV2 microglial cells were cultured and contacted with biotin labeled COG 133. Total protein extracts were prepared from treated BV2 cells and biotin-containing complexes isolated with streptavidin-agarose beads. After washing of beads, proteins were eluted by boiling in Laemmli sample buffer and denatured proteins were separated on a SDS-PAGE gel. […]

[5] = molecular target: T2, SET from human brain (Homo sapiens, UniProt Q01105); assay: Biotinylated COG 133 pull-down of SET from human brain extract, competition with excess peptide; type: binding
T2 construct: pulls down SET from human brain extracts; from tissue; host or cells: human brain homogenate
T2 sequence (Q01105 whole entry): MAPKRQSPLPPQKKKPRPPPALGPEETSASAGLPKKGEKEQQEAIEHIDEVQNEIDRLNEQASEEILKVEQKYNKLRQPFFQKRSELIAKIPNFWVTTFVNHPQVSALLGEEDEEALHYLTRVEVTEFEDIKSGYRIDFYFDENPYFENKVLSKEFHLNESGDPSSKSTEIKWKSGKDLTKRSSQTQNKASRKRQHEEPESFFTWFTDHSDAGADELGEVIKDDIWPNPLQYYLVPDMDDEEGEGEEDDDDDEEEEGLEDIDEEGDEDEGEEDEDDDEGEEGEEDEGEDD
Protocol: Human brain was homogenized in PBS buffer with a protease cocktail tablet and centrifuged to remove cellular debris. 100 ng of biotinylated COG 133 (COG 133 peptide with biotin attached to the N-terminus) was added to 1 mg of clarified supernatant. After 4 hours of incubation at room temperature, 50 μL of a 50% slurry of streptavidin agarose beads were added. After an additional hour of incubation, the beads were pelleted by centrifugation. The beads were washed 3 times with PBS buffer containing 0.1% tween 20 detergent. 50 μL of a 2×SDS PAGE loading buffer (containing DTT) were added to the washed beads and the samples were boiled for 2 minutes. Polyacrylamide gels were loaded with either 40 μL of extract per lane or 10 μg of total brain extract protein (control lane) and run in SDS buffer. […] Membranes were then probed with an anti-SET antibody. Blots were developed with Enhanced Chemiluminescence substrates (GE healthcare) and visualized by exposure to film.
In a related experiment, derivatives of the COG 133 peptide were tested for SET binding. Human brain extracts were prepared as described above. A 10-fold excess of COG 1410 or COG 112 peptide was added to the brain extract and incubated for 10 minutes. Next, 100 ng of biotinylated COG 133 was added to the extract and incubated for four hours at room temperature. […]

[6] = molecular target: T3, SET bound to P35 (Homo sapiens, UniProt Q01105); assay: Co-precipitation of SET with immunoprecipitated p35 from human brain lysate; type: binding; settings: 50 μM peptide, SET normalized to P35
T3 construct: from tissue; host or cells: human brain lysate
T3 sequence (Q01105 2-290 limits assumed): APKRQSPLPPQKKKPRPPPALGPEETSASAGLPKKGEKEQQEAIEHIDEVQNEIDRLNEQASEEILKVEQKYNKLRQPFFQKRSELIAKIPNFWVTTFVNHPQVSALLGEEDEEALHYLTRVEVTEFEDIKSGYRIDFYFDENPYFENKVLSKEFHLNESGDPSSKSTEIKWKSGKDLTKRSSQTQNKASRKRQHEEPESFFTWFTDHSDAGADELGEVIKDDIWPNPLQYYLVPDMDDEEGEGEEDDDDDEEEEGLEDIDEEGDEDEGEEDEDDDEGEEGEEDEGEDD
Protocol: FIG. 13. Human brain lysate was incubated with 50 μM of each of the peptides indicated. P35 was subsequently immunoprecipitated from 1 mg of the peptide-treated lysate. Western blots were performed to measure co-precipitation of SET protein (left panel). […] Signals from SET were normalized to signals for P35 protein.
as §1, with “1410. Activator protein p35 was immunoprecipitated with an anti-p35 antibody and protein A agarose beads from 1 mg of the peptide-treated brain lysates.” for “1410.”

[7] = tested on: p38 MAP kinase; assay: LPS-induced phosphorylation of p38 MAP kinase in BV2 microglia, western blot; type: cell-based, mouse; settings: LPS plus peptide, 30 minutes, normalized to GAPDH
Protocol: (§2) Mouse BV2 microglia were incubated with either a negative control, LPS, or LPS and COG 133 (SEQ ID NO: 1) peptide for 30 minutes. Cells were lysed and a clarified extract prepared by centrifugation. Polyacrylamide gels were loaded with 30 μg of extract per lane and run in SDS buffer. […] Membranes were then probed with phospho-specific p38 MAP kinase, MKK 3/6, JNK, ERK, and IκB antibodies. Membranes were developed with Enhanced Chemiluminescence substrates (GE healthcare) and visualized by exposure to film. Membranes were then stripped and reprobed for total p38, JNK, Erk or IκB using non phospho-specific antibodies as previously described. In some experiments, the membranes were probed for GAPDH protein. Densitometry analysis of the western blots was conducted and the signals from phosphorylated p38 MAP kinase were normalized to those from GAPDH. […] PP2A has been reported to bind and dephosphorylate p38 MAP kinase (Sundaresan & Farndale 2002 FEBS Letters 528, 139). Given that COG peptides can increase PP2A activity (Example 5), it is likely that the dephosphorylation of p38 MAP kinase occurs through the activation of PP2A by COG binding to SET.

[8] = tested on: human THP1 cells; assay: LPS-induced TNFα production in human THP1 cells with and without siRNA to SET; type: cell-based; settings: SET removed by siRNA-based silencing
Excerpt: Consistent with the mechanism of SET as an inhibitor of Protein Phosphatase 2A (PP2A), a reduction of the LPS-induced TNF response as well as elimination of the effect of COG 133 was observed when SET was removed from the cells.

[9] = tested on: NFκB; assay: Nuclear NFκB in LPS-stimulated colonic epithelial cells, gel shift with radiolabeled oligonucleotide; type: cell-based; settings: nuclear extracts
Protocol: In the dephosphorylated state, IκB binds to the transcription factor NFκB and prevents it from translocating to the nucleus to activate transcription of pro-inflammatory cytokines. […] A radiolabeled oligonucleotide containing a NFκB binding site was added to the proteins from the nuclear extracts and the proteins were subsequently separated by non-denaturing polyacrylamide gel electrophoresis. The amount of NFκB present in the nuclear extracts was detected by autoradiography (FIG. 10D). Nuclear NFκB was reduced in the presence of COG 133 providing further evidence that this signal transduction cascade is suppressed in cells treated with ApoE peptides.

[10] = tested on: IκB; assay: LPS-induced phosphorylation of IκB in BV2 microglia, western blot; type: cell-based, mouse; settings: LPS plus peptide, 30 minutes
Protocol: as §2

[11] = tested on: BV2 cells; settings: without siRNA; previously shown; cited from earlier work
[12] = tested on: BV2 cells; assay: LPS-induced nitric oxide production in BV2 cells with and without siRNA to SET; type: cell-based, mouse; settings: BV2 cells transfected with siRNA to SET
Protocol: See PCT application PCT/US05/31431 which claims priority to U.S. Provisional Applications 60/606,506, filed Sep. 2, 2004, 60/608,148, filed Sep. 9, 2004, and 60/606,507, filed Sep. 2, 2004 which are herein incorporated by reference in their entireties. BV2 cells were transfected with siRNA to SET. BV2 cells transfected with the siRNA and BV2 cells not transfected with the siRNA were treated with COG 133, LPS, or LPS and COG 133 as described in the above-referenced patent applications. Untreated BV2 cells were used as a control. FIG. 3 is a graph of the results. Bars three and seven correspond to LPS without siRNA to SET and with siRNA to SET, respectively. […] Similarly, there is a reduction in nitric oxide in the group treated with LPS and COG 133 and transfected with siRNA to SET compared to the group treated with LPS and COG 133 and not transfected with siRNA (lanes 8 and 4, respectively).

[13] = tested on: c-Jun N-terminal kinase (JNK); assay: LPS-induced phosphorylation of JNK in BV2 microglia, western blot; type: cell-based, mouse; settings: LPS plus peptide, 30 minutes
Protocol: as §2

[14] = tested on: extracellular regulated kinase (ERK) 1/2; assay: LPS-induced phosphorylation of ERK 1/2 in BV2 microglia, western blot; type: cell-based, mouse; settings: LPS plus peptide, 30 minutes
Protocol: as §2

[15] = tested on: PP2A; assay: PP2A activity (rate of phosphate release) of PP2A immunoprecipitated from treated RAW cells; type: cell-based, mouse; settings: 10 nM okadaic acid alone, 1 hour
Protocol: Mouse macrophagic RAW cells were incubated with either 100 ng/mL LPS, 1 μM COG 112 (COG 133 conjugated to antennapedia), LPS and COG 112, 10 nM okadaic acid (an inhibitor of PP2A), or okadaic acid and COG 112. After 1 hour, cells were lysed and PP2A was immunoprecipitated by adding an antibody targeted to the catalytic C-subunit of PP2A. Half of the immunoprecipitate was separated by SDS-PAGE, blotted on to nitrocellulose, and probed with an anti-PP2AC antibody. The remaining portion was assayed for activity by adding 125 μL assay cocktail containing a phospho-threonine substrate peptide to the immunoprecipitated enzyme. After incubating at 37° C. with shaking, a 25 μL aliquot was removed and added to an ammonium molybdate solution (Upstate) that chelates free phosphate and changes color upon chelate formation. Aliquots were removed at various time intervals and the amount of free phosphate released from the peptide was determined by comparison to a phosphate standard curve. The rate of phosphate release was determined by linear fit to the time course data and was normalized to the relative PP2A concentration. PP2A activity, measured by the rate of phosphate release, is increased in the presence of COG 112 (FIG. 8), as would be expected if SET inhibition of PP2A was eliminated by binding of COG112 to SET. […]

## Ac-AS-Aib-LRKL-Aib-KRLL-NH2 [COG 1410]
[1]
  amount of SET bound to P35: reduce the amount of SET bound to P35
[2]; mouse, in vivo
  phosphorylated tau protein induced by OA: reduced the amount of phosphorylated tau protein
[3]
  gain in therapeutic window as compared to COG 133: 4 fold
[4]; BV2 cells, anti-SET western blot
  competition with biotinylated COG 133 for binding to SET: competes with COG 133 in binding to SET
[5]; 10-fold excess of competitor peptide, human brain extract
  SET protein pulled down with biotinylated COG 133: reduces the amount of SET protein pulled down
[6]
  amount of SET bound to P35: reduce the amount of SET bound to P35

## LRVRLASHLRKLRKRLL [COG 133]
[7]
  phosphorylation of p38 MAP kinase: decrease in phosphorylation
[8]
  effect in reducing LPS-induced TNFα production: eliminated
[9]
  nuclear NFκB: reduced
[10]
  LPS-induced phosphorylation of IκB: reduces the LPS-induced phosphorylation
[11]
  LPS-induced nitric oxide production: reduce LPS-induced nitric oxide production
[6]
  amount of SET bound to P35: reduce the amount of SET bound to P35
[12]
  nitric oxide, LPS+COG 133+siRNA versus LPS+siRNA: not a significant difference
[13]
  LPS-induced phosphorylation of JNK: reduces the LPS-induced phosphorylation
[14]
  LPS-induced phosphorylation of ERK: reduces the LPS-induced phosphorylation

## C=C1[C@@H](O)[C@@H]2O[C@]3(CC[C@H](/C=C/[C@@H](C)[C@@H]4CC(C)=C[C@@]5(O[C@H](C[C@@](C)(O)C(=O)O)CC[C@H]5O)O4)O3)CC[C@H]2O[C@@H]1[C@@H](O)C[C@H](C)[C@H]1O[C@@]2(CCCCO2)CC[C@H]1C [okadaic acid, reference compound]
[15]
  baseline PP2A activity: decrease in baseline PP2A activity
[2]; okadaic acid intravenously, increasing concentrations, one hour, normalized to GAPDH
  phospho-tau in the cortex: concentration-dependent increase

## biotinylated COG 133 [reference compound]
[4]
  binding to SET: uniquely bind
[5]; 100 ng peptide in 1 mg human brain supernatant, streptavidin pull-down
  binding to SET: binds to and pulls down SET
